Laboratory results taken from US12365643B2, “Phenoxy carboxylic acid compounds and medical uses thereof” (QINGDAO RISING BIOTECHNOLOGY CO., LTD, priority 2018, dated 2025).

Tests used:
db/db mice = experiment: Diabetes mellitus model (db/db mice); format: in vivo, mouse; conditions: for blood glucose level: 50 mg/kg intragastric once a day for 28 days (FIG. 7); for AHDL (high density lipoprotein) / ALDL (low density lipoprotein) / ALT / AST / BUN / CHOL (total cholesterol) / CK / CREA / TGL (triglycerides) / fat content in the liver (Oil red O and H.E. staining): intragastric once a day for 28 days; for AHDL (high density lipoprotein) / ALDL (low density lipoprotein) / ALT / AST / BUN / CHOL (total cholesterol) / CK / CREA / TGL (triglycerides): 50 mg/kg (pioglitazone 6 mg/kg); for fat content in the liver (Oil red O and H.E. staining): 50 mg/kg (pioglitazone 6 mg/kg) (FIGS. 8A-8B)
Text: Animal model: C57BL/KsJ-leprdb/leprdb diabetic (db/db) mice were widely used as animal models of type 2 diabetes mellitus, in which spontaneous mutations of leptin receptor (Leptin receptor, Lepr) caused extreme obesity, polyphagia, diabetes and polyuria. In this experiment, db/db mice (purchased from the Department of Animals, Health Science Center of Peking University) were selected. In the experiment, 28 db/db mice were used, and the animals with blood glucose of about 7-13 mmol/L were selected. […] Intragastric administration was adopted with an administration volume of 10 ml/kg. […] The administration was performed once a day for 28 consecutive days. From the day of oral administration, the physiological changes of the animals were observed every day. Blood glucose was measured every 3 days (Roche blood glucose meter) and blood glucose difference (Δ) was calculated by the following formula: blood glucose difference (Δ)=the blood glucose of the day—the initial blood glucose (the initial blood glucose difference was zero). For mice in each experimental group, blood was collected, serum was separated, and liver was taken for wet-weight measurement after necropsy; liver tissue was taken and fixed for pathological examination, H.E. staining and oil red O staining (Wuhan Zishan Biotechnology Co., Ltd.) were performed, and mouse liver lesions were observed under light microscope; routine examination of blood was performed by Animal Laboratory Department, Health Science Center of Peking University to measure the following indexes: white blood cell count (WBC), red blood cell count (RBC), lymphocyte count (LY), platelet (PLT) and so on; biochemical laboratory examination of blood was performed by Laboratory Medicine, Third Hospital, Peking University to measure the following indexes: triglycerides (TG), total cholesterol (T-CHO), high-density lipoprotein cholesterol (HDL-C), low-density lipoprotein cholesterol (LDL-C) and so on.

[1] = Metabolism of BJMU-2 by the liver
phosphorylated GSK3β = experiment: Phosphorylated GSK3β level by Western blotting in HepG2; format: cell-based, human; conditions: 1 μM, 24 hours, HepG2, Western blotting (FIG. 6B)
Text: Carnitine palmitoyltransferase (CPT1α) is a rate-limiting enzyme of fatty acid oxidation. When the body or tissues are lacking in energy, CPT1α catalyzes the entry of fatty acids into mitochondria for […], and at the same time, CPT1α is also involved in the regulation of fatty acid-induced insulin resistance and inflammation. Protein kinase B/glycogen synthase kinase 3β (AKT/GSK3β) signaling pathway and insulin receptor substrate 1 (IRS-1) are key signaling pathways that regulate glucose metabolism in response to insulin signal. Therefore, by determining the effects of compounds on the CPT1α protein level and the AKT, GSK3β and IRS-1 protein phosphorylation levels, it is possible to evaluate the regulatory effects of the compounds on glycolipid metabolism.
After human liver cancer cells HepG2 were incubated with the compound of the present application or the control drug at 1 μM for 24 hours, the CPT1α protein level and the AKT, GSK3β and IRS-1 phosphorylated protein levels in the cells were determined by Western blotting; after gray-scale scanning by using Image J15.0.1, normalization was performed by using β-tubulin protein level as internal control, and the quantitative analysis results were shown in FIG. 6.

[2] = 50 mg/kg intragastric once a day for 28 days

SMILES	activity of lowering triglycerides (in words) (db/db mice; [2])	total cholesterol content in blood (in words) (db/db mice; [2])	blood glucose level (db/db mice)	AHDL (high density lipoprotein) (db/db mice)	ALDL (low density lipoprotein) (db/db mice)	ALT (db/db mice)	AST (db/db mice)	BUN (db/db mice)	CHOL (total cholesterol) (db/db mice)	CK (db/db mice)	CREA (db/db mice)	TGL (triglycerides) (db/db mice)	fat content in the liver (Oil red O and H.E. staining) (db/db mice)	metabolism by the liver [1]	phosphorylation level of GSK3β (phosphorylated GSK3β)
Cc1cc(OCCCC(C)(C)C(=O)O)c(C)cc1Br [BJMU-2, 5-(4-bromo-2,5-dimethylphenoxy)-2,2-dimethylpentanoic acid]	had an activity of lowering triglycerides better than gemfibrozil	could reduce the total cholesterol content in the blood	could significantly reduce the blood glucose level	1.59 ± 0.13 mmol/L	0.33 ± 0.09 mmol/L	187.75 ± 62.07 U/L	210.75 ± 56.97 U/L	7.23 ± 1.19 mmol/L	3.06 ± 0.63 mmol/L	1790.75 ± 388.38 U/L	10.13 ± 5.25 µmol/L	1.44 ± 0.42 mmol/L	could significantly reduce the fat content in the liver	could be metabolized by the liver to produce metabolites BJMU-415 and 502	significantly increased the phosphorylation level of GSK3β
Cc1ccc(C)c(OCCCC(C)(C)C(=O)O)c1 [gemfibrozil, Gemfibrozil, reference compound]		did not show the activity of lowering total cholesterol in blood	did not show obvious hypoglycemic activity	1.64 ± 0.28 mmol/L	0.35 ± 0.02 mmol/L	172.25 ± 123^ U/L	225 ± 132.19 U/L	9.56 ± 1.57 mmol/L	3.37 ± 0.36 mmol/L	1037 ± 523.17 U/L	16 ± 10.46 µmol/L	2.09 ± 0.95 mmol/L	neither gemfibrozil nor pioglitazone showed the above activity		
